In brackets after ≈: the same amount, converted by molar mass.
Tests used:
[1] = Metabolic stability in human microsomes assessed as intrinsic clearance preincubated for 10 mins followed by NADPH addition and measured after 5 to 60 mins by LC-MS/MS analysis; type: ADME, Microsome; details: time 15-70 min
[2] = Metabolic stability in human liver microsomes assessed as compound remaining preincubated for 10 mins followed by NADPH addition and measured at 60 mins by LC-MS/MS analysis; type: ADME, Microsome; details: time 70 min, read-out: Stability
[3] = Metabolic stability in human liver microsomes assessed as half life preincubated for 10 mins followed by NADPH addition and measured after 5 to 60 mins by LC-MS/MS analysis; type: ADME, Microsome; details: time 15-70 min
Candida albicans [4] = experiment: Antifungal activity against FLC-resistant Candida albicans 632 assessed as fungal growth inhibition by NCCLS protocol based method; type: functional
[5] = AUClast in Sprague-Dawley rat at 10 mg/kg, po measured after 24 hrs by LC-MS/MS analysis; type: ADME, organism-based; design: dose 10 mg/kg, time 24 hrs, route po; details: in vivo
Candida albicans [6] = experiment: Antifungal activity against FLC-resistant Candida albicans 100 assessed as fungal growth inhibition by NCCLS protocol based method; type: functional
[7] = Oral bioavailability in Sprague-Dawley rat at 10 mg/kg measured measured after 24 hrs by LC-MS/MS analysis; type: ADME, organism-based; details: in vivo
Candida albicans [8] = experiment: Fungicidal activity against Candida albicans CPCC400616 assessed as reduction in colony forming units at 8 times MIC incubated for 24 hrs by time kill assay; type: functional
[9] = Stability in human plasma assessed as half life measured at 120 mins by LC/MS-MS analysis; type: ADME, cell-free
[10] = Stability in human plasma assessed as compound remaining measured at 120 mins by LC/MS-MS analysis; type: ADME, cell-free; details: read-out: Stability
Nakaseomyces glabratus = experiment: Antifungal activity against Candida glabrata clinical isolate assessed as fungal growth inhibition by NCCLS protocol based method; type: functional
Candida albicans [11] = experiment: Antibiofilm activity against FLC-resistant Candida albicans CPCC400616 assessed as assessed as inhibition of biofilm formation measured at 6 hrs by XTT reduction assay; type: functional
Candida parapsilosis = experiment: Antifungal activity against Candida parapsilosis GIM2.190 assessed as fungal growth inhibition by NCCLS protocol based method; type: functional; details: Lodderomyces parapsilosis
[12] = AUClast in Sprague-Dawley rat at 3 mg/kg, iv measured after 24 hrs by LC-MS/MS analysis; type: ADME, organism-based; design: time 24 hrs, dose 3 mg/kg, route iv; details: in vivo
Candida albicans [13] = experiment: Fungicidal activity against Candida albicans CPCC400616 assessed as minimum fungicidal concentration incubated for 48 hrs; type: functional
Candida tropicalis = experiment: Antifungal activity against Candida tropicalis CGMCC 2.3739 assessed as fungal growth inhibition by NCCLS protocol based method; type: functional
Candida albicans [14] = experiment: Fungicidal activity against Candida albicans CPCC400616 assessed as reduction in colony forming units at 2 to 8 times MIC incubated for 24 hrs by time kill assay; type: functional, organism-based; details: DDE = dose-dependent effect
Candida albicans [15] = experiment: Antifungal activity against Candida albicans CPCC400616 assessed as fungal growth inhibition by NCCLS protocol based method; type: functional
MCF7 = experiment: Cytotoxicity against human MCF7 cells assessed as inhibition of cell growth incubated for 4 hrs by MTT assay; type: functional, cell-based; details: MCF7, 4 h
Candida albicans [16] = experiment: Antifungal activity against FLC-resistant Candida albicans 901 assessed as fungal growth inhibition by NCCLS protocol based method; type: functional
Candida albicans [17] = experiment: Antifungal activity against FLC-resistant Candida albicans 311 assessed as fungal growth inhibition by NCCLS protocol based method; type: functional
Candida albicans [18] = experiment: Antifungal activity against FLC-resistant Candida albicans 904 assessed as fungal growth inhibition by NCCLS protocol based method; type: functional
Candida albicans [19] = experiment: Fungicidal activity against Candida albicans CPCC400616 assessed as minimum inhibitory concentration incubated for 48 hrs; type: functional
Cryptococcus neoformans = experiment: Antifungal activity against Cryptococcus neoformans CGMCC 2.3161 assessed as fungal growth inhibition by NCCLS protocol based method; type: functional
Candida albicans [20] = experiment: Antibiofilm activity against FLC-resistant Candida albicans CPCC400616 assessed as assessed as inhibition of biofilm formation measured at 24 hrs by XTT reduction assay; type: functional
HepG2 = experiment: Cytotoxicity against human HepG2 cells assessed as inhibition of cell growth incubated for 4 hrs by MTT assay; type: functional, cell-based; details: HepG2, 4 h
Candida albicans [21] = experiment: Antifungal activity against FLC-resistant Candida albicans CaR assessed as fungal growth inhibition by NCCLS protocol based method; type: functional
Candida albicans [22] = experiment: Antifungal activity against FLC-resistant Candida albicans 103 assessed as fungal growth inhibition by NCCLS protocol based method; type: functional
Pichia kudriavzevii = experiment: Antifungal activity against Candida krusei GIM2.1 assessed as fungal growth inhibition by NCCLS protocol based method; type: functional
[23] = Stability in human plasma assessed as compound remaining measured at 60 mins by LC/MS-MS analysis; type: ADME, cell-free; details: read-out: Stability
Candida albicans [24] = experiment: Antifungal activity against Candida albicans ATCC SC5314 assessed as fungal growth inhibition by NCCLS protocol based method; type: functional
A549 = experiment: Cytotoxicity against human A549 cells assessed as inhibition of cell growth incubated for 4 hrs by MTT assay; type: functional, cell-based; details: A549, 4 h
[25] = Cytotoxicity against human HEK293T cells assessed as inhibition of cell growth incubated for 4 hrs by MTT assay; type: toxicity, cell-based, HEK-293T
Candida albicans [26] = experiment: Antibiofilm activity against FLC-resistant Candida albicans CPCC400616 assessed as assessed as inhibition of biofilm formation measured at 3 hrs by XTT reduction assay; type: functional
Candida albicans [27] = experiment: […] for fungicidal activity against Candida albicans CPCC400616; type: functional
Aspergillus fumigatus = experiment: Antifungal activity against Aspergillus fumigatus CGMCC3.7795 assessed as fungal growth inhibition by NCCLS protocol based method; type: functional
[28] = Half life in Sprague-Dawley rat at 10 mg/kg, po measured after 24 hrs by LC-MS/MS analysis; type: ADME, organism-based; details: in vivo
[29] = Half life in Sprague-Dawley rat at 3 mg/kg, iv measured after 24 hrs by LC-MS/MS analysis; type: ADME, organism-based; details: in vivo
Candida albicans [30] = experiment: Antibiofilm activity against FLC-resistant Candida albicans CPCC400616 assessed as assessed as inhibition of biofilm formation measured at 18 hrs by XTT reduction assay; type: functional

## Cc1ccc(C(=O)C(Cn2ccnc2)NC(=O)c2ccc(-c3ccc(Cl)cc3)s2)cc1 (configuration not stated)
[1]
  CLint: 74.6 µL/min/mg
[2]
  remaining at 1 h: 9.3%
[3]
  half-life: 0.31 h

## Fc1ccc(C2(Cn3ccnc3)COC(c3ccc(-c4ccccc4F)s3)=N2)cc1 (configuration not stated)
Candida albicans [4]
  MIC: 0.5 µg/mL (≈ 1.19 µM)
[5]
  AUC(0-t) at 24 h: 466 ng·h/mL
Candida albicans [6]
  MIC: 0.5 µg/mL (≈ 1.19 µM)
[7]
  bioavailability: 15.1%
Candida albicans [8]
  Activity: 2 log10CFU/ml
[1]
  CLint: 19.7 µL/min/mg
[9]
  half-life: > 4.8 h
[10]
  remaining at 2 h: 101%
Nakaseomyces glabratus
  MIC: 0.06 µg/mL (≈ 0.142 µM)
Candida albicans [11]
  MIC50: 1 µg/mL (≈ 2.37 µM)
Candida parapsilosis
  MIC: 0.25 µg/mL (≈ 0.593 µM)
[12]
  AUC(0-t) at 24 h: 925 ng·h/mL
[2]
  remaining at 1 h: 49.7%
Candida albicans [13]
  MFC: 0.125 µg/mL (≈ 0.297 µM)
Candida tropicalis
  MIC: 0.03 µg/mL (≈ 0.0712 µM)
Candida albicans [14]
  Activity: Dde
Candida albicans [15]
  MIC: 0.03 µg/mL (≈ 0.0712 µM)
MCF7
  IC50: > 50 µM
Candida albicans [16]
  MIC: 0.125 µg/mL (≈ 0.297 µM)
Candida albicans [17]
  MIC: 0.125 µg/mL (≈ 0.297 µM)
Candida albicans [18]
  MIC: 1 µg/mL (≈ 2.37 µM)
Candida albicans [19]
  MIC: 0.03 µg/mL (≈ 0.0712 µM)
Cryptococcus neoformans
  MIC: 0.125 µg/mL (≈ 0.297 µM)
Candida albicans [20]
  MIC50: 8 µg/mL (≈ 19 µM)
HepG2
  IC50: 17 µM
Candida albicans [21]
  MIC: 0.25 µg/mL (≈ 0.593 µM)
Candida albicans [22]
  MIC: 0.25 µg/mL (≈ 0.593 µM)
Pichia kudriavzevii
  MIC: 0.25 µg/mL (≈ 0.593 µM)
[23]
  remaining at 1 h: 98.7%
Candida albicans [24]
  MIC: 0.03 µg/mL (≈ 0.0712 µM)
A549
  IC50: > 50 µM
[25]
  IC50 at 4 h: 14.2 µM
Candida albicans [26]
  MIC50: 0.125 µg/mL (≈ 0.297 µM)
Candida albicans [27]
  Ratio: 4
Aspergillus fumigatus
  MIC: 0.25 µg/mL (≈ 0.593 µM)
[3]
  half-life: 1.18 h
[28]
  half-life: 4.44 h
[29]
  half-life: 1.02 h
Candida albicans [30]
  MIC50: 2 µg/mL (≈ 4.75 µM)

## c1ccc(-c2ccc(C3=NC(Cn4ccnc4)(c4ccccc4)CO3)s2)cc1 (configuration not stated)
[1]
  CLint: 27.6 µL/min/mg
[9]
  half-life: > 4.8 h
[10]
  remaining at 2 h: 89.5%
Nakaseomyces glabratus
  MIC: 16 µg/mL (≈ 41.5 µM)
Candida parapsilosis
  MIC: 16 µg/mL (≈ 41.5 µM)
[2]
  remaining at 1 h: 41.3%
Candida tropicalis
  MIC: 4 µg/mL (≈ 10.4 µM)
Candida albicans [15]
  MIC: 1 µg/mL (≈ 2.59 µM)
Cryptococcus neoformans
  MIC: 2 µg/mL (≈ 5.19 µM)
Pichia kudriavzevii
  MIC: 16 µg/mL (≈ 41.5 µM)
[23]
  remaining at 1 h: 93.1%
Candida albicans [24]
  MIC: 1 µg/mL (≈ 2.59 µM)
Aspergillus fumigatus
  MIC: 8 µg/mL (≈ 20.8 µM)
[3]
  half-life: 0.837 h

## OC(Cn1cncn1)(Cn1cncn1)c1ccc(F)cc1F [FLUCONAZOLE]
Candida albicans [4]
  MIC: > 64 µg/mL
Candida albicans [6]
  MIC: > 64 µg/mL
Nakaseomyces glabratus
  MIC: 4 µg/mL (≈ 13.1 µM)
Candida albicans [11]
  MIC50: > 64 µg/mL
Candida parapsilosis
  MIC: 2 µg/mL (≈ 6.53 µM)
Candida albicans [13]
  MFC: > 64 µg/mL
Candida tropicalis
  MIC: 0.5 µg/mL (≈ 1.63 µM)
Candida albicans [15]
  MIC: 1 µg/mL (≈ 3.27 µM)
MCF7
  IC50: > 50 µM
Candida albicans [16]
  MIC: > 64 µg/mL
Candida albicans [17]
  MIC: > 64 µg/mL
Candida albicans [18]
  MIC: > 64 µg/mL
Candida albicans [19]
  MIC: 0.5 µg/mL (≈ 1.63 µM)
Cryptococcus neoformans
  MIC: 4 µg/mL (≈ 13.1 µM)
Candida albicans [20]
  MIC50: > 64 µg/mL
HepG2
  IC50: > 50 µM
Candida albicans [21]
  MIC: > 64 µg/mL
Candida albicans [22]
  MIC: > 64 µg/mL
Pichia kudriavzevii
  MIC: 8 µg/mL (≈ 26.1 µM)
Candida albicans [24]
  MIC: 0.5 µg/mL (≈ 1.63 µM)
A549
  IC50: > 50 µM
[25]
  IC50 at 4 h: > 50 µM
Candida albicans [26]
  MIC50: 32 µg/mL (≈ 104 µM)
Candida albicans [27]
  Ratio: > 128
Aspergillus fumigatus
  MIC: > 64 µg/mL
Candida albicans [30]
  MIC50: > 64 µg/mL

From ChEMBL document CHEMBL5131399, “Broadening antifungal spectrum and improving metabolic stablity based on a scaffold strategy: Design, synthesis, and evaluation of novel 4-phenyl-4,5-dihydrooxazole derivatives as potent fungistatic and fungicidal reagents” (Eur J Med Chem, 2022)
